Reference: patent US11136613B2, “Antibacterial polypeptide libraries and methods for screening the same” (priority 2015, dated 2021)

Legend:
Type in all cases: cell-based
[1] = tested on: wild type E. coli strain W3110; conditions: for cell lysis measured by decrease in culture optical density after IPTG induction: surface displayed peptide, E. coli W3110, IPTG added
[2] = tested on: E. coli; test: Co-culture of 2× tether+cecropin P1 expressing E. coli and empty vector E. coli, CFU plating and plasmid qPCR; conditions: 3 hours
[3] = tested on: E. coli strain WD101; conditions: surface displayed peptide, 2× tether, 0.1 mM IPTG
[4] = tested on: A. baumannii; test: Surface expression of 2× tether+cecropin P1 or HA in A. baumannii; conditions: 2× tether surface expression
Excerpt: FIG. 3: Surface expression of 2× tether+cecropin P1 or HA in A. baumannii. Addition of IPTG leads to rapid lysis of cecropin P1 containing A. baumannii.
The platform uses a plasmid with a broad host range origin of replication offering flexibility to identify antimicrobial peptides in many gram-negative bacteria. For example, A. baumannii is a gram-negative, hospital-associated pathogen that quickly acquires antibiotic resistance. […] The selective marker on this plasmid can be changed to allow its use in bacteria with different antibiotic resistant profiles.

Substance | cell lysis measured by decrease in culture optical density after IPTG induction [1] | efficiency of cell lysis depending on tether ([1]; two (2×) tandem low-complexity-region protein tethers, versus 0 and 1× tether, 0.1 mM IPTG) | difference in recoverable colony forming units between peptide expressing and control bacteria ([2]; co-culture in equal ratio, 0.1 mM IPTG) | decrease of ratio of peptide encoding plasmid to empty vector (qPCR) ([2]; co-culture, 0.1 mM IPTG induction) [fold] | cell lysis in resistant strain WD101 compared with parental strain W3110 [3] | lysis of A. baumannii after addition of IPTG [4]
Dermaseptin | same impact on cell growth |  |  |  |  | 
cecropin P1 (SWLSKTAKKLENSAKKRISEGIAIAIQGGPR; Cecropin-P1; UniProt P14661 14-44, looked up) [known antimicrobial peptide that lyses many gram-negative bacteria through disruption of the outer membrane; positive control] | begin to lyse | most efficient lysis | 2-3 log | ~50 | less cell lysis | rapid lysis
